Measured values published in patent US20240094197A1, “Method for removing protein corona of the surface of nanometer particle” (ZHEJIANG UNIVERSITY, priority 2022, published 2024).
Where two headings read alike, the source gives them in different places.

Columns and labels:
BxPC3 cells [1] = assay: Endocytic pathway in tumor cells (endocytosis inhibitors); format: cell-based, human; details: chlorpromazine 50 μM, genistein 200 μM, wortmannin 5 μM, cytochalasin D 5 μM; for inhibition at 200 µM / inhibition at 5 µM / inhibition at 50 µM: Homo sapiens; for inhibition rate on the endocytosis of LPGL in BxPC3 cells: serum-containing medium
Protocol: BxPC3 cells (1×10^5 cells/mL, 1 mL) were cultured in 12-well plates for 24 h, and the culture medium was then replaced with 1 mL fresh serum-free medium. Chlorpromazine (50 μM, clathrin-mediated endocytosis inhibitor), genistein (200 μM, caveolae-mediated endocytosis inhibitor), wortmannin (5 μM, phosphatidylinositol 3-kinases-mediated macropinocytosis inhibitor), or cytochalasin D (5 μM, actin-polymerization inhibitor) was added to the medium for 2 h of incubation. Another group of BxPC3 cells without any endocytosis inhibitor treatment was cultured for 2 h as the control group. Next, the mixture of Cy5-labeled LPGL liposome (equivalent to fluorescent lipids of 60 μg/mL, 20 μL) and serum-containing medium or serum-free medium was respectively added into the plate, and subsequently treated with or without ultrasound stimulation (acoustic intensity: 2 W/cm^2, frequency: 3 MHz, duty cycle: 50%, duration time: 5 min). After incubation of 3 h, cells were washed, digested and collected into a centrifugal tube, and the mean fluorescence intensity was detected by flow cytometry.

[2] = test system: human-derived tumor xenograft of PDA; assay: In vivo antitumor activity (PDA model); design: species or system BALB/c nude mice
Protocol: BALB/c nude mice bearing human-derived tumor xenograft of PDA in the subcutaneous region were selected and grouped into seven groups (n=6). Each group was intravenously injected with LPGL liposome dispersion (dose equivalent to GEM 10 mg/kg), PGL liposome dispersion (dose equivalent to GEM 10 mg/kg), LGL liposome dispersion (dose equivalent to GEM 10 mg/kg), GL liposome dispersion (dose equivalent to GEM 10 mg/kg), GEM PBS7.4 dispersion (dose equivalent to GEM 10 mg/kg), LPL liposome dispersion or PBS 7.4 buffer respectively every two days for a total of four times. The 16th day was the first time of intravenous injection administration. The tumor site of each group was treated with ultrasound stimulation (acoustic intensity: 2 W/cm^2, frequency: 3 MHz, duty cycle: 50%, duration time: 20 min) after post-injection. The width and length of the tumors and the bodyweight of mice were measured during the treatment. At the end of the experiment at 36 days, the blood was collected, then mice were euthanized, tumors were dissected and weighed. The therapeutic efficacy was evaluated by comparing tumor size in the experimental group and control group. The tumor inhibition rate=100%×(mean tumor weight of PBS group−mean tumor weight of experimental group)/mean tumor weight of PBS group. The dissected tumors were fixed with 4% neutral buffered paraformaldehyde and embedded in paraffin. Tissue sections of 5-μm thick were mounted onto glass slides and stained with hematoxylin-eosin (H&E), and then examined by light microscopy. The immunohistochemistry staining of Ki67 was tested to investigate the percentage of proliferous tumor cells positively stained in the examined field. Tissue sections were subjected to Ki67 staining using the Ki67-antibody Assay Kit according to the manufacturer's protocol. Apoptotic cells were also identified using TUNEL Apoptosis Assay Kit and examined using CLSM

[3] = test system: human-derived tumor xenograft of HCC; assay: In vivo antitumor activity and toxicity (HCC model); design: species or system BALB/c nude mice
Protocol: The study of liposome and its characteristics and anti-tumor activity in Example 2 was the same as that in Example 1. The difference was that LPGL liposome and LGL liposome were prepared by replacing DSPE-PEG2000-RGD with DSPE-PEG2000-NGR. The DSPE-PEG2000-NGR refers to 1,2-distearoyl-sn-glycero-3-phosphoethanolamine-N-[methoxy (polyethylene glycol)-2000]-NGR targeting peptide, the amino acid sequence of NGR targeting peptide was Gly (glycine)-Gly (glycine)-Cys (cysteine)-Asn (asparagine)-Gly (glycine)-Arg (arginine)-Cys (cysteine) with the amino acid sequence GGCNGRC (SEQ ID NO: 2).
BALB/c nude mice bearing human-derived tumor xenograft of hepatocellular carcinoma (HCC) in the subcutaneous region were selected and grouped into six groups (n=9, wherein three mice of each group were selected to measure the accumulation content of gemcitabine triphosphate active metabolite (dFdCTP) in the tumor after 24 h of first intravenous injection). Same to the PDA model in the Example 1, after BALB/c nude mice subcutaneously bearing human-derived tumor xenograft of HCC were injected with free GEM PBS 7.4 buffer, GL liposome, NGR modified LGL liposome, PGL liposome, NGR modified LPGL liposome or PBS 7.4, the tumor site was treated with ultrasound stimulation (+US, acoustic intensity: 2 W/cm^2, frequency: 3 MHz, duty cycle: 50%, duration time: 20 min). At 24 h after firstly intravenous injection, the accumulation content of gemcitabine triphosphate active metabolite (dFdCTP) in the tumor was shown in FIG. 17B. As GEM could quickly be phosphorylated into its active metabolite of GEM triphosphate (dFdCTP) in tumor, so the dFdCTP was widely used as a quantitative index of GEM.
The tumor size and the bodyweight of mice in each group was shown in FIG. 17C, FIG. 17D, FIG. 17E and FIG. 17F. […] At the end of the 34-day experiment, the mice serum was sampled, and the content of alanine aminotransferase (ALT), aspartate aminotransferase (AST), creatinine (CRE) and blood urea nitrogen (BUN) in the serum was detected to evaluate the in vivo hepatic and renal toxicity (as shown in Table 4).

[4] = test system: three-dimensional (3D) multicellular tumor spheroids of Huh7; assay: Cytotoxicity on 3D multicellular tumor spheroids (Alamar Blue); format: cell-based, human; details: serum-containing medium, ultrasound stimulation, 72 h, equivalent to GEM 0~10 μM
Protocol: (§1) The cytotoxicity of the liposome was tested on the three-dimensional (3D) multicellular tumor spheroids of BxPC3 or Huh7. The tumor spheroids were established using the hanging drop method. The mixture of LPGL, PGL, LGL, GL or free gemcitabine (GEM) and serum-containing medium were respectively added into the wells containing three-dimensional (3D) multicellular tumor spheroids of BxPC3 or Huh7 at the final testing concentrations (equivalent to GEM: 0˜10 μM), and treated with ultrasound stimulation (acoustic intensity: 2 W/cm^2, frequency: 3 MHz, duty cycle: 50%, duration time: 5 min), then incubated for 72 h. Meanwhile, the LPL liposome with equimolar ratio to LPGL liposome was tested as a control. Afterward, the culture medium was replaced with a mixture of 90 μL fresh culture medium and 10 μL Alamar Blue Cell Viability Reagent, and was continuously incubated for 12 h. The sample plates were then detected using a plate reader at 530 nm excitation and 590 nm emission to obtain fluorescence intensity readouts. In addition, apoptosis induced by the liposome in spheroids were further determined by the TdT-mediated dUTP nick end labeling (TUNEL) assay, and the positive TUNEL-staining cells were examined by CLSM.

[5] = test system: three-dimensional (3D) multicellular tumor spheroids of BxPC3; assay: as above; format: cell-based, human; details: serum-containing medium, ultrasound stimulation, 72 h, equivalent to GEM 0~10 μM
Protocol: as §1

[6] = test system: 3D multicellular tumor spheroids of BxPC3; assay: Morphology and apoptosis of tumor spheroids (light microscope, TUNEL staining); format: cell-based, human; details: equivalent to GEM 0.1 μM, serum-containing medium, ultrasound stimulation, 72 h
Protocol: The method for inhibiting 3D multicellular tumor spheroids of BxPC3 with free GEM and different liposomes is as follows: the mixture of LPGL, PGL, LGL, GL liposome, free gemcitabine (GEM) or PBS and serum-containing medium was incubated with 3D multicellular tumor spheroids of BxPC3 at the final testing concentrations (equivalent to GEM: 0.1 μM), and treated with ultrasound stimulation (acoustic intensity: 2 W/cm^2, frequency: 3 MHz, duty cycle: 50%, duration time: 5 min), then incubated for 72 h, the morphology of 3D multicellular tumor spheroids of BxPC3 in different treatment group was observed using light microscope and TUNEL staining, scale bar=500 μm. […] (10E) The mean integrated optical density (IOD) of fluorescence in two inner layers of 75 μm and 100 μm (as shown in FIG. 10 D) in 3D multicellular tumor spheroids of BxPC3 was analyzed using Image-pro Plus 6.0 software to evaluate the penetration ability of liposome.
The cytotoxicity of the liposome was tested on the three-dimensional (3D) multicellular tumor spheroids of BxPC3 or Huh7. […] The sample plates were then detected using a plate reader at 530 nm excitation and 590 nm emission to obtain fluorescence intensity readouts. In addition, apoptosis induced by the liposome in spheroids were further determined by the TdT-mediated dUTP nick end labeling (TUNEL) assay, and the positive TUNEL-staining cells were examined by CLSM.

BxPC3 cells [7] = assay: Transcytosis transport in tumor cells; format: cell-based, human; details: BxPC3 cells pretreated with EXO1 20 μM; serum-containing medium, with ultrasound stimulation
Protocol: BxPC3 cells (1×10^5 cells/mL, 1 mL) were cultured in a confocal dish for 24 h, and the culture medium was then replaced with 1 mL fresh serum-free medium. Next, the mixture of Cy5-labeled GL, LGL, PGL or LPGL liposome (equivalent to fluorescent lipids of 60 μg/mL, 20 μL) and serum-containing medium or serum-free medium was respectively added into the confocal dish, and subsequently treated with or without ultrasound stimulation (acoustic intensity: 2 W/cm^2, frequency: 3 MHz, duty cycle: 50%, duration time: 5 min). After incubation of 3 h, the dishes were washed twice with PBS. A total of 1×10^5 fresh cells in 1 mL of fresh serum-free medium was added to the dishes. The mixed cells were continuously incubated for 0 min, 30 min, and 120 min. The transcellular transport of liposome from previously added cells to newly added cells was photographed at incubation time of 0 min, 30 min, and 120 min with a CLSM using 640 nm excitation wavelength. Then the newly added cells at 120 min of incubation were washed away and collected into a centrifugal tube, and detected using flow cytometry. Meanwhile, BxPC3 cells pretreated with an exocytosis inhibitor EXO1 (20 μM) were tested using the same method to investigate the inhibition of transcellular transport.

[8] = test system: 3D multicellular tumor spheroids of BxPC3; assay: Penetration in tumor spheroids (CLSM); format: cell-based, human; details: EXO1 20 μM pretreatment
Protocol: The 3D multicellular tumor spheroids of BxPC3 pretreated with or without exocytosis inhibitor EXO1 (20 μM) were transferred to a confocal dish containing fresh serum-free medium. The mixture of Cy5-labeled LPGL, PGL, LGL or GL liposome (equivalent to fluorescent lipids of 60 μg/mL, 30 μL) and fresh serum-containing medium were added, and treated with ultrasound stimulation (acoustic intensity: 2 W/cm^2, frequency: 3 MHz, duty cycle: 50%, duration time: 5 min), then incubated for 6 h. After washing with PBS, images were obtained with CLSM in XYZ-3D-stack at 25-μm intervals from apex to equator.

[9] = BXPC-3, serum-containing medium, with ultrasound stimulation, read-out: inhibition rate on the endocytosis of LPGL in BxPC3 cells
[10] = BXPC-3, serum-containing medium, without ultrasound stimulation, read-out: inhibition rate on the endocytosis of LPGL in BxPC3 cells
[11] = BXPC-3, serum-free medium, without ultrasound stimulation, read-out: inhibition rate on the endocytosis of LPGL liposome in BxPC3 cells
[12] = mice serum, end of the 34-day experiment, LGL and LPGL are NGR modified

O=c1c(-c2ccc(O)cc2)coc2cc(O)cc(O)c12 [genistein]
inhibition at 200 µM (BxPC3 cells [1]; [9]): 52.5% | inhibition at 200 µM (BxPC3 cells [1]; [10]): 28.9% | inhibition at 200 µM (BxPC3 cells [1]; [11]): 57.6%

COC[C@H]1OC(=O)c2coc3c2[C@@]1(C)C1=C(C3=O)[C@@H]2CCC(=O)[C@@]2(C)C[C@H]1OC(C)=O [wortmannin]
inhibition at 5 µM (BxPC3 cells [1]; BXPC-3, read-out: inhibition rate on the endocytosis of LPGL in BxPC3 cells, serum-containing medium, with ultrasound stimulation): 24.8% | inhibition at 5 µM (BxPC3 cells [1]; BXPC-3, read-out: inhibition rate on the endocytosis of LPGL in BxPC3 cells, serum-containing medium, without ultrasound stimulation): 23.5% | inhibition at 5 µM (BxPC3 cells [1]; BXPC-3, read-out: inhibition rate on the endocytosis of LPGL liposome in BxPC3 cells, serum-free medium, without ultrasound stimulation): 13.4%

Nc1ccn([C@@H]2O[C@H](CO)[C@@H](O)C2(F)F)c(=O)n1 [GEM, gemcitabine]
side effects: body weight, white blood cell (WBC) and blood platelet ([2]; during treatment / end of the 36-day experiment): distinct body weight loss, and hematological damage on sharp decrease of white blood cell (WBC) and blood platelet | H&E staining of excised tumors, vs LPL liposome and PBS ([2]; end of the 36-day experiment): much less densely populated cells | distribution of apoptotic cells in tumor (TUNEL assay) ([2]; end of the 36-day experiment): merely existed around the tumor periphery | change of tumor volume ([2]; i.v. every two days, four times, dose equivalent to GEM 10 mg/kg, ultrasound on tumor 20 min): firstly delayed, but then recovered to grow when stopping administration | bodyweight of mice ([3]; during treatment): gradually decreased | content of AST, ALT, BUN and CRE relative to normal range ([3]; mice serum, end of the 34-day experiment): beyond the maximum of normal limit | ALT [3, 12]: 81.1 ± 10.5 U/L | AST [3, 12]: 218.6 ± 25.3 U/L | BUN [3, 12]: 47.6 ± 5.0 mg/dL | CRE [3, 12]: 0.68 ± 0.17 mg/dL | cytotoxicity against 3D multicellular tumor spheroids of Huh7 [4]: dose-dependent cytotoxicity | cytotoxicity against 3D multicellular tumor spheroids of BxPC3 [5]: dose-dependent cytotoxicity | apoptotic cells in BxPC3 spheroids (TUNEL staining) [6]: few apoptotic cells distributed around the spheroid's periphery | morphology of BxPC3 spheroids (light microscope) [6]: no significant change in morphology

C=C1[C@@H](C)[C@H]2[C@H](Cc3ccccc3)NC(=O)[C@]23[C@H](OC(C)=O)/C=C/[C@@](C)(O)C(=O)[C@@H](C)C/C=C/[C@H]3[C@@H]1O [cytochalasin D]
inhibition rate on the endocytosis of LPGL in BxPC3 cells (BxPC3 cells [1]; with ultrasound stimulation): 17.0% | inhibition rate on the endocytosis of LPGL in BxPC3 cells (BxPC3 cells [1]; without ultrasound stimulation): 10.2% | inhibition rate on the endocytosis of LPGL liposome in BxPC3 cells (BxPC3 cells [1]; serum-free medium, without ultrasound stimulation): 19.9%

COC(=O)c1ccccc1NC(=O)c1ccc(F)cc1 [EXO1]
effect on transcytosis transport of LPGL liposome (BxPC3 cells [7]): could be inhibited | effect on permeability of LPGL liposome into the 3D spheroid of BxPC3 [8]: could significantly inhibit the permeability of LPGL liposome

CN(C)CCCN1c2ccccc2Sc2ccc(Cl)cc21 [chlorpromazine]
inhibition at 50 µM (BxPC3 cells [1]; [9]): 24.4% | inhibition at 50 µM (BxPC3 cells [1]; [10]): 35.9% | inhibition at 50 µM (BxPC3 cells [1]; [11]): 21.1%
